These results are taken from paper PMC11432795, “Mutagenesis of the Peptide Inhibitor of ASIC3 Channel Introduces Binding to Thumb Domain of ASIC1a but Reduces Analgesic Activity” (Marine Drugs, 2024).

Positions of bridges follow the written chain, without caps; N, C: chain ends. Residues, ends and D or L forms follow the SMILES beside them.

The assay has as its target T1, rat ASIC1a/3 heteromeric channels (Rattus norvegicus, UniProt O35240+P55926).
T1 construct: expressed in transfected cells; host or cells: Xenopus laevis oocytes co-injected with ASIC1a and ASIC3 mRNA (1:5)
T1 sequence (P55926 1-526): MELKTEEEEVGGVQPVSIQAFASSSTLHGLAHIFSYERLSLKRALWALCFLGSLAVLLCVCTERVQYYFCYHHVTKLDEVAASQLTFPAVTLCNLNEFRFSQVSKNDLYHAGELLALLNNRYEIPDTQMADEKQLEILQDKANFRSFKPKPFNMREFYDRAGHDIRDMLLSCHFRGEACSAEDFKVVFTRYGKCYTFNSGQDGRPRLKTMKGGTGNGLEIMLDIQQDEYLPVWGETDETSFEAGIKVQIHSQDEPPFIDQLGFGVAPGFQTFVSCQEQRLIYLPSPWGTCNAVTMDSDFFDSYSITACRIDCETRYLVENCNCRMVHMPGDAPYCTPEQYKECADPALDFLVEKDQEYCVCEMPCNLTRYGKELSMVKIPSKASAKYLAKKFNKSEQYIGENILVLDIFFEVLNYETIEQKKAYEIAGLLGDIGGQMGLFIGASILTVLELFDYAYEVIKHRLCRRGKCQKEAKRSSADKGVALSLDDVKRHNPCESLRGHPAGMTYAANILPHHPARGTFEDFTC
T1 sequence (O35240 1-533): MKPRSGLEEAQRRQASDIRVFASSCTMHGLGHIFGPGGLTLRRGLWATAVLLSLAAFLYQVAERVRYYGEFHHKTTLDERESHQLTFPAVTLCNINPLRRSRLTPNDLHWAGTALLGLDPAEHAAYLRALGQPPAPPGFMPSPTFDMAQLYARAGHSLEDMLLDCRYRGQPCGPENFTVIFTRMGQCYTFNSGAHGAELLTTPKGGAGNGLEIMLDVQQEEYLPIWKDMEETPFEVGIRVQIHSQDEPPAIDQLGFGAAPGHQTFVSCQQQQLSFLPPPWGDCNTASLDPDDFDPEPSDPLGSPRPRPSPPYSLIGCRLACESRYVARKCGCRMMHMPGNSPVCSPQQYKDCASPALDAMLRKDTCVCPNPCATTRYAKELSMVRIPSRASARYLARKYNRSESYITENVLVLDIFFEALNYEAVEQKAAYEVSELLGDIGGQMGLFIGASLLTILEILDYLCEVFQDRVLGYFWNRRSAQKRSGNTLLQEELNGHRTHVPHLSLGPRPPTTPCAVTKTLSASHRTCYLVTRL
The experiment in a line: Two-electrode voltage clamp, rat ASIC1a/3 heteromeric channels in X. laevis oocytes. In kind it is cell-based. The source says:
Figure 4 The effect of the mutant peptide A23K on rat heteromeric ASIC1a/3 channels. […] The depicted currents were induced by a pH 5.5 stimulus following a conditioning pH of 7.4, with the peptide applied for 30 s before the pH stimulus. (B) Dose–response curve for the inhibitory effect of the mutant peptide. Each data point represents data from 6 cells. Data are presented as mean ± S.E.M.
A small portion of the ovary was isolated from frogs under anesthesia induced by a 0.17% solution of procaine methanesulphonate (MS222) (Sigma), followed by treatment with collagenase (1 mg/mL) at room temperature for 2 h. Oocytes at stages IV and V, devoid of follicular membranes, were transferred to ND-96 medium (containing 96 mM NaCl, 5 mM HEPES, 2 mM KCl, 1.8 mM CaCl2, 1 mM MgCl2, pH 7.4). mRNA synthesis was performed from pcDNA3.1 vectors (Invitrogen, Carlsbad, CA, USA) containing the rat ASIC3 gene, as well as pCI vectors containing genes for rat ASIC1a, its mutant analogues, and ASIC1b. mRNA (2.5–10 ng) was then injected into the oocytes. For the ASIC1a/3 heteromeric channels, the mRNA encoding the ASIC1a and ASIC3 subunits were injected in a 1:5 ratio, respectively. Subsequently, the oocytes were incubated for 2–3 days at a temperature of 17–19 °C in ND96 medium supplemented with gentamicin and streptomycin (20 µg/mL each).
Whole-cell electrophysiological recordings of ASIC channels were conducted using a two-electrode voltage-clamp setup. Microelectrodes were filled with 3 M KCl. Recordings from oocytes were carried out at a holding potential of −50 mV, with data filtered at 10 Hz and sampled at a rate of 100 Hz using an L780M ADC (LCard, Moscow, Russia). The synchronized delivery of solutions into the chamber and recording of electrophysiological results were carried out using in-house software v.2. Activation of ASIC channels occurred through rapid pH changes in the solution, achieved by replacing the working solution in the chamber with ND96-based solutions at varying pH levels. Specifically, HEPES was substituted with 10 mM MES for pH 5.5–6.5 and MOPS for pH 6.7–7.0.
Fresh peptide solutions were meticulously prepared in ND96 buffer with a pH of 7.43 immediately before experiments, with strict control over the pH levels. Peptides were applied for 30 s at a conditioning pH of 7.43 before acid stimulation of the channel. The interval between applications was maintained at a minimum of 1.5 to 2 min.
Electrophysiological data analysis was conducted using OriginPro 2018 software (OriginLab, Northampton, MA, USA). Dose–response relationships for Ugr9a-1, S16K, and A23K peptides were fitted using a Hill function: F1(x) = A − A/(1 + (x/IC50)^nH), where F1(x) represents the amplitude of the current at concentration x of the peptide, A is the maximum amplitude of the current, IC50 is the half-maximum inhibitory concentration of the peptide, and nH is the Hill coefficient.

Turning to `CC[C@H](C)[C@H](N)C(=O)N[C@@H](CO)C(=O)N[C@H](C(=O)N[C@@H](CC(=O)O)C(=O)N1CCC[C@H]1C(=O)N1CCC[C@H]1C(=O)N[C@H]1CSSC[C@@H]2NC(=O)[C@H](CC(N)=O)NC(=O)CNC(=O)[C@H](CO)NC(=O)CNC(=O)[C@H](CC(=O)O)NC(=O)[C@H](CCCNC(=N)N)NC(=O)[C@H](Cc3c[nH]cn3)NC(=O)[C@H](Cc3ccc(O)cc3)NC(=O)[C@H](CSSC[C@@H](C(=O)NCC(=O)N[C@@H](C)C(=O)N[C@H](C(=O)O)C(C)C)NC(=O)CNC(=O)[C@H](Cc3ccc(O)cc3)NC(=O)[C@H](CCCCN)NC(=O)[C@H](CC(=O)O)NC(=O)[C@H](Cc3ccc(O)cc3)NC(=O)[C@H](C(C)C)NC2=O)NC(=O)[C@H](Cc2ccccc2)NC(=O)[C@H](CCCNC(=N)N)NC1=O)[C@@H](C)CC` [A23K] (H-ISIDPPCRFCYHRDGSGNCVYDKYGCGAV-OH; disulfide 7-19, 10-26), for the setting “ASIC1a/3 versus homomeric ASIC1a”, the “inhibitory effect on heteromeric channels compared to homomeric ASIC1a” value is recorded as “approximately 1.6 -fold”. Besides, the “inhibitory effect on heteromeric channels compared to homomeric ASIC3” value (ASIC1a/3 versus homomeric ASIC3) was ~2.2 -fold. Moreover, the nH (inhibition of rat ASIC1a/3, pH 5.5 stimulus, conditioning pH 7.4, mean ± S.E.M., 6 cells) is on record as 1.6 ± 0.2. In addition, where the note is “rat ASIC1a/3 heteromer, X. laevis oocytes (mRNA 1:5), pH 5.5 stimulus, conditioning pH 7.4, peptide 30 s, mean ± S.E.M., 6 cells”, the midpoint of inhibition, the IC50, lay at 4.2 ± 0.6 µM. In addition, the “wash procedure required to restore ASIC1a/3 function” value (washout after peptide) is reported as “extended wash procedure required to restore ASIC1a/3 function”.
